Assay results: ChEMBL document CHEMBL1140637, “QSAR modeling of matrix metalloproteinase inhibition by N-hydroxy-alpha-phenylsulfonylacetamide derivatives” (Bioorg Med Chem, 2007)

How the values were obtained:
[1] = molecular target: Matrix metalloproteinase-9 (Homo sapiens) (UniProt P14780); test: Inhibition of MMP9
[2] = molecular target: T1, Interstitial collagenase (Homo sapiens) (UniProt P03956); test: Inhibition of MMP1
T1 sequence (whole entry): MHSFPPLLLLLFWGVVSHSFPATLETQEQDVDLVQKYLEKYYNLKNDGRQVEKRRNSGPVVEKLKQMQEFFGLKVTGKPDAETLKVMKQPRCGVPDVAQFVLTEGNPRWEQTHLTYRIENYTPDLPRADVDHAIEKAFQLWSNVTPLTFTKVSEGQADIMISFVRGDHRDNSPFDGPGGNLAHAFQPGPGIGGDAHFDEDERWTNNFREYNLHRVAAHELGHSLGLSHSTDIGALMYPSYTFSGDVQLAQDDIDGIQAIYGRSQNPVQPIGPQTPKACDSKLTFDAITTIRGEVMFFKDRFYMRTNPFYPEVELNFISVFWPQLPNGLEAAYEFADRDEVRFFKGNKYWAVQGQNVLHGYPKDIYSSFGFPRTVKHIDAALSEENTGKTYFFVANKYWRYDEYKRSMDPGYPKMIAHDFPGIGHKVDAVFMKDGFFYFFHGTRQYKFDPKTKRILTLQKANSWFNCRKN

[3] = molecular target: Collagenase 3 (Homo sapiens) (UniProt P45452)

Matrix metalloproteinase-9 (Homo sapiens), sequence (P14780 whole entry): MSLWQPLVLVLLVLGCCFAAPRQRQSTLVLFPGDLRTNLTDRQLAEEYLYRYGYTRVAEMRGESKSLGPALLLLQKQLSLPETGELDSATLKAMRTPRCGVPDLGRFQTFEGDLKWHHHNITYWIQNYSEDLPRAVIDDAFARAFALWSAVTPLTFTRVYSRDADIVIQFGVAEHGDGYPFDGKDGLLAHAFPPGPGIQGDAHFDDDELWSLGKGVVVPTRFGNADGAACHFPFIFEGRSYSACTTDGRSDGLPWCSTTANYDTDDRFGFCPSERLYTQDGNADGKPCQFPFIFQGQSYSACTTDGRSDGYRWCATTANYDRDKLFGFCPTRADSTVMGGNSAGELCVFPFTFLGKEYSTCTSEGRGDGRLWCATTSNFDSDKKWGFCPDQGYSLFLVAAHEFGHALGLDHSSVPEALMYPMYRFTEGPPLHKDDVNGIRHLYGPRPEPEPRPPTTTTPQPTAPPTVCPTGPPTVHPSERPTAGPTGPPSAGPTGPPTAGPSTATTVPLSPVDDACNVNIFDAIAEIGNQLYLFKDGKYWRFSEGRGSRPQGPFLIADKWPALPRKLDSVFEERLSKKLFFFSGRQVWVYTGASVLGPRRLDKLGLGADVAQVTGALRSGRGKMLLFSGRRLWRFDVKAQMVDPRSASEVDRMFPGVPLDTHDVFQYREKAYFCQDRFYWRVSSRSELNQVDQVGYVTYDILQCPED

Structure (SMILES)	log(10^6/IC50) [1]	log(10^6/IC50) [2]	log(10^6/IC50) [3]
O=C(NO)C1(S(=O)(=O)c2ccc(-c3ccco3)cc2)CCN(Cc2ccccc2)CC1	5.52	4.4	
COc1ccc(S(=O)(=O)C2(C(=O)NO)CCN(Cc3ccc(OCCN4CCCCC4)cc3)CC2)cc1	5.52	3.41	5.52
COc1ccc(S(=O)(=O)C2(C(=O)NO)CCN(Cc3ccc(-c4ccccc4)cc3)CC2)cc1	4.89	2.88	5.52
COc1ccc(S(=O)(=O)[C@](C)(Cc2ccc(OCCCN3CCN(c4cccc(Cl)c4)CC3)cc2)C(=O)NO)cc1	5.15	3.23	5.4
O=C(NO)C1(S(=O)(=O)c2ccc(Oc3ccc(Cl)cc3)cc2)CCN(Cc2ccccc2)CC1	6	3.1	6
CCCCOc1ccc(S(=O)(=O)C2(C(=O)NO)CCN(C)CC2)cc1	5	2.47	5.7
COc1ccc(S(=O)(=O)C2(C(=O)NO)CCN(C(C)C)CC2)cc1	3.43	2.35	4.47
COc1ccc(S(=O)(=O)[C@@](C)(CC2CCCCC2)C(=O)NO)cc1	5.05	3.49	4.62
COc1ccc(S(=O)(=O)C2(C(=O)NO)CCN(Cc3ccc(C)cc3)CC2)cc1	4.77	3.31	5.7
CCCCOc1ccc(S(=O)(=O)C2(C(=O)NO)CCN(CC)CC2)cc1	4.37	2.15	5.7
CCCCN1CCC(C(=O)NO)(S(=O)(=O)c2ccc(Oc3ccc(Cl)cc3)cc2)CC1	6	2.97	6
COc1ccc(S(=O)(=O)C2(C(=O)NO)CCN(Cc3ccc(Cl)c(Cl)c3)CC2)cc1	5.22	3.35	5.7
COc1ccc(CN2CCC(C(=O)NO)(S(=O)(=O)c3ccc(Oc4ccc(Cl)cc4)cc3)CC2)cc1	6	3.31	
COc1ccc(S(=O)(=O)C(C)(Cc2ccc(-c3ccccc3)cc2)C(=O)NO)cc1 (stereo unspecified)	4.64	3.8	
CCC(CC)COc1ccc(S(=O)(=O)C2(C(=O)NO)CCN(Cc3ccccc3)CC2)cc1	4.85	2.5	5.3
O=C(NO)C1(S(=O)(=O)c2ccc(Oc3ccc(Cl)cc3)cc2)CCNCC1	5.7	2.9	5.7
C=C(C)N1CCC(C(=O)NO)(S(=O)(=O)c2ccc(OC)cc2)CC1	4.41	2.86	5.15
COc1ccc(S(=O)(=O)C2(C(=O)NO)CCN(Cc3ccc(F)cc3)CC2)cc1	4.8	3.18	5.7
C#CC[C@](Cc1cccnc1)(C(=O)NO)S(=O)(=O)c1ccc(OC)cc1	4.08	3.17	4.49
CCCCOc1ccc(S(=O)(=O)C2(C(=O)NO)CCN(CCOc3ccccc3)CC2)cc1	5.3	2.54	
O=C(NO)C1(S(=O)(=O)c2ccc(OCc3ccccc3)cc2)CCN(Cc2ccccc2)CC1	5.52		

Structure (SMILES)	log(10^6/IC50) [1]	log(10^6/IC50) [2]	log(10^6/IC50) [3]
CCN1CCC(C(=O)NO)(S(=O)(=O)c2ccc(Oc3ccc(Cl)cc3)cc2)CC1	6	2.76	6
COc1ccc(S(=O)(=O)C2(C(=O)NO)CCN(C(C)(C)C)CC2)cc1	3.19		3.83
COc1ccc(S(=O)(=O)[C@](C)(Cc2ccc(OCCN3CCCCC3)cc2)C(=O)NO)cc1	5.05	3.62	
CCN(CC)CCOc1ccc(CC(C)(C(=O)NO)S(=O)(=O)c2ccc(OC)cc2)cc1 (single isomer, unassigned)	4.89	3.5	4.82
CCCCOc1ccc(S(=O)(=O)C2(C(=O)NO)CCN(CCCOc3ccccc3)CC2)cc1	5.3	2.42	
COc1ccc(S(=O)(=O)C2(C(=O)NO)CCN(Cc3ccccc3)CC2)cc1	5	3.31	5.7
COc1ccc(S(=O)(=O)C2(C(=O)NO)CCN(Cc3cccc(OC)c3)CC2)cc1	5.05	3.28	5.7
COc1ccc(S(=O)(=O)C2(C(=O)NO)CCN(CCOc3ccccc3)CC2)cc1	4.59	3.2	5.52
C=C(C)[C@@](C)(C(=O)NO)S(=O)(=O)c1ccc(OC)cc1	4.96	3.62	4.85
COc1ccc(S(=O)(=O)C2(C(=O)NO)CCN(CCCOc3ccccc3)CC2)cc1	4.36	2.92	5.4
CCCCOc1ccc(S(=O)(=O)C2(C(=O)NO)CCN(Cc3cccc(OC)c3)CC2)cc1	5.52	2.82	
CCCCOc1ccc(S(=O)(=O)C2(C(=O)NO)CCN(Cc3ccc(Cl)c(Cl)c3)CC2)cc1	4.7	2.44	5.3
COc1ccc(S(=O)(=O)C2(C(=O)NO)CCN(Cc3ccc(-c4ccccn4)cc3)CC2)cc1	5.22	3.37	
COc1ccc(S(=O)(=O)C2(C(=O)NO)CCN(Cc3ccc(-c4cccs4)cc3)CC2)cc1	4.96	3.27	5.52
COc1ccc(S(=O)(=O)C2(C(=O)NO)CCN(Cc3ccc4ccccc4c3)CC2)cc1	5.3	3.43	
COc1ccc(CCN2CCC(C(=O)NO)(S(=O)(=O)c3ccc(OC)cc3)CC2)cc1	4.47	3.18	5.7
CCCCOc1ccc(S(=O)(=O)C2(C(=O)NO)CCN(CCCC)CC2)cc1	4.55		5.7
COc1ccc(S(=O)(=O)C(C)(C/C=C/c2ccccc2)C(=O)NO)cc1 (stereo unspecified)	4.8	3.52	4.92
COc1ccc(S(=O)(=O)[C@](CCC(C)C)(Cc2cccnc2)C(=O)NO)cc1		3.24	4.05
CCCCOc1ccc(S(=O)(=O)C2(C(=O)NO)CCN(Cc3ccc(OCCN4CCCCC4)cc3)CC2)cc1	5.7	2.71	
CCN(CC)CCOc1ccc(C[C@](C)(C(=O)NO)S(=O)(=O)c2ccc(-c3ccco3)cc2)cc1	5.4	4.85	5.7
